The test system of data set [1] is Cryptococcus neoformans ATCC 90113. The data set is described as follows: In vitro antimicrobial. Format: cell-based. The settings on record: ATCC90113, read-out: IC50 Antifungal C. neoformans.
Data set [2] deals with Staphylococcus aureus ATCC 29213. The data set is described as follows: In vitro antimicrobial. Format: cell-based. The settings on record: ATCC29213, read-out: IC50 Antibacterial S. aureus.
Data set [3] deals with methicillin-resistant S. aureus ATCC 33591 (MRS). The data set is described as follows: In vitro antimicrobial. The settings on record: Staphylococcus aureus, ATCC33591, read-out: IC50 Antibacterial MRS. Format: cell-based.
The conditions of data set [4]: ref Fujimoto et al. 1999; cited from earlier work.
The conditions of data set [5]: ref Mikaye et al., 2009; Ishikawa et al., 1984; Li et al., 2006; cited from earlier work.
For data set [6], the system named is mouse skin tumor promotion. The settings on record: two-stage carcinogenesis; ref Mikaye et al., 2010; cited from earlier work.
The test system of data set [7] is visceral and cutaneous leishmaniasis. The settings on record: oral drug, ref Berman, 2008; cited from earlier work.
The test system of data set [8] is P. falciparum chloroquine-sensitive strain (D6, Sierra Leone). The data set is described as follows: In vitro antimalarial activity, plasmodial LDH activity. Format: cell-based, Plasmodium falciparum. The settings on record: chloroquine-sensitive strain D6, 72 h.
The test system of data set [9] is P. falciparum chloroquine-resistant strain (W2, Indo China). The description is as above. Format: cell-based, Plasmodium falciparum. The settings on record: chloroquine-resistant strain W2, 72 h.
In data set [10] the test system is sex cells of the sea urchin Strongylocentrotus intermedius. The settings on record: at a concentration of 0.5 mg/l; ref Smetanina et al., 2007; cited from earlier work.
The subject of a further data set is S. aureus. The settings on record: ref Desbois et al., 2008; cited from earlier work.
For data set [11], the system named is mitochondrial respiration. The settings on record: ref Kawai et al., 1986; cited from earlier work.
The test system of the next data set is HeLa cells. The settings on record: cited from earlier work.
For data set [12] the following is noted: ref Ali et al., 1989; cited from earlier work.
For data set [13] the following is noted: ref Mori et al., 1984; cited from earlier work.
The conditions of data set [14]: ref Vesonder et al., 1988; cited from earlier work.
The conditions of data set [15]: ref Vesonder et al., 1988; cited from earlier work. The source holds these as a separate data set.

Broadly, the IC50 is the midpoint of a concentration-inhibition curve.

Where two headings read alike, the source gives them in different places. Some results are limits rather than exact numbers.

Regarding `CCCCC/C=C/c1c(O)cc(CC=C(C)C)c(O)c1CO` [Compound 1, (E)-2-(hept-1-enyl)-3-(hydroxymethyl)-5-(3-methylbut-2-enyl)benzene-1,4-diol], the IC50 in [1] and in [2] was greater than 20 µg/mL throughout.
With `Cc1c(O)cc(O)c2c1COC2=O` [Compound 8, 5,7-dihydroxy-4-methylphthalide], the IC50 in data set [2] and in data set [3] was greater than 20 µg/mL each time. The immunosuppressive activity entry in [4] is recorded as “immunosuppressive activity”.
As for `C/C=C/C=C/C=C/c1c(O)cc(CC=C(C)C)c(O)c1C=O` [Compound 5, auroglaucin], the half-inhibitory concentration (IC50) in data set [1], in [2] and in data set [3] was greater than 20 µg/mL throughout. Also, in data set [5], the “antioxidant activity and radical scavenging activity against DPPH” value is “antioxidant activity and radical scavenging activity”. Moreover, the “inhibition of mouse skin tumor promotion” value in data set [6] is reported as “inhibited”.
For the molecule `CCCCCCCCCCCCCCCCOP(=O)([O-])OCC[N+](C)(C)C` [Miltefosine], the cure rates entry in data set [7] is listed as “about 98%”.
For the molecule `CCC/C=C/c1cc2c(C=O)c(O)c(CC=C(C)C)cc2o1` [Compound 6, 2-(2′,3-epoxy-1′,3′-heptadienyl)-6-hydroxy-5-(3-methyl-2-butenyl)benzaldehyde], the “IC50 Antimalarial P. falciparum D6” value in data set [8] is “inactive”. Further, the “IC50 Antimalarial P. falciparum W2” value in [9] was “inactive”. For the same molecule, the “antioxidant activity and radical scavenging activity against DPPH” value in data set [5] is “antioxidant activity and radical scavenging activity”.
As for `CCCCC/C=C/c1c(O)cc(CC=C(C)C)c(O)c1C=O` [Compound 3, tetrahydroauroglaucin], the IC50 in [1] and in data set [3] was greater than 20 µg/mL each time. Moreover, in data set [10], the “cytotoxic activity against sex cells of the sea urchin” value is given as “cytotoxic activity”. Further, the “antioxidant activity and radical scavenging activity against DPPH” value in data set [5] was “antioxidant activity and radical scavenging activity”. Also, the “inhibition of mouse skin tumor promotion” value in data set [6] is reported as “inhibited”.
Regarding `CCCCCC/C=C\CCCCCCCC(=O)O` [(9Z)-hexadecenoic acid], the “potency against S. aureus relative to (6Z, 9Z, 12Z)-hexadecatrienoic acid (HTA)” value in the data set with S. aureus is “about twice as much”.
`CCC/C=C/C=C/c1c(O)cc(CC=C(C)C)c(O)c1C=O` [Compound 4, dihydroauroglaucin]: the IC50 in data set [1], in data set [2] and in data set [3] was greater than 20 µg/mL in each case. In addition, in [8], the “IC50 Antimalarial P. falciparum D6” value is “inactive”. In addition, the “IC50 Antimalarial P. falciparum W2” value in data set [9] was “inactive”. Further, the “antioxidant activity and radical scavenging activity against DPPH” value in data set [5] is “antioxidant activity and radical scavenging activity”. The “inhibition of mouse skin tumor promotion” value in data set [6] is reported as “inhibited”.
`CCCCCCCc1c(O)cc(CC=C(C)C)c(O)c1C=O` [Compound 2, flavoglaucin]: in data set [1], the IC50 was greater than 20 µg/mL. In data set [11], the mitochondrial respiration entry is on record as “inhibited mitochondrial respiration” and the mitochondrial swelling result is “induced mitochondrial swelling”. For the same molecule, the “antioxidant activity and radical scavenging activity against DPPH” value in [5] is “antioxidant activity and radical scavenging activity”. In addition, the “inhibition of mouse skin tumor promotion” value in data set [6] is “inhibited”. The “cytotoxicity to HeLa cells” value in the data set with HeLa cells is given as “cytotoxic”.
Regarding `C=CC(C)(C)c1[nH]c2c(CC=C(C)C)cc(CC=C(C)C)cc2c1C[C@@H]1NC(=O)[C@H](C)NC1=O` [Compound 7, echinulin], the IC50 in data set [1], in data set [2] and in [3] was greater than 20 µg/mL each time. Moreover, in [12], the “organ damage (alveolar, liver)” value is “severe damage of alveolar organization and thickening of alveolar walls and liver damage”. Also, the genotoxicity result in data set [13] was “not genotoxic”. Besides, the “concentration in food that swine refused to eat” value in data set [14] was 8 ng/mL. Moreover, the “concentration in the water causing drinking refusal in mice” value in data set [15] is 90000 ng/mL. For the same molecule, the “cytotoxicity to HeLa cells” value in the data set on HeLa cells (at the concentration of 100 mg/l, ref Umeda et al., 1974, Wang et al., 2006) is listed as “cytotoxicity”.

The values above are taken from publication PMC3457657 (Medicinal chemistry research : an international journal for …, 2011).
